This is an account of results in US4816471A, “Substituted heterocyclic benzamides, methods of preparing them and their application as anti-emetics” (Societe d'Etudes Scientifiques et Industrielles de …, priority 1978, dated 1989).

For orientation: ED50 means the midpoint of the dose-response relation. For orientation: LD50 means the dose expected to kill half of the subjects tested. A high value points to lower toxicity.

Each structure is given as a SMILES string.

The test system of data set [1] is anti-emetic power relative to apomorphine in dogs. The data set is described as follows: anti-emetic power relative to apomorphine in dogs by the method of Chen and Ensor (subcutaneous administration). The conditions noted are these: Canis lupus familiaris, sc, Table 1, s.c. 30 minutes before apomorphine 100 ug/kg s.c. The data set is classed as in vivo. The procedure: (§1) The pharmacodynamic tests on the compounds of this invention, and particularly a study of their anti-emetic power have shown strong activity on the nervous system as apomorphine antagonists. […] In accordance with the above-mentioned procedures, the compounds of the invention were administered subcutaneously 30 minutes before the administration of apomorphine, which was administered subcutaneously in a dose of 100 ug/kg.

Data set [2] shares this test system. Briefly: anti-emetic ED50 under oral administration (procedure of Example 29). The data set is classed as in vivo. The conditions noted are these: Canis lupus familiaris, Table 2. The protocol: as §1
Compounds SLC-036, 77205 and 77149 are disclosed in U.S. Pat. No. 4,172,143 for comparison purposes, as Examples 10, 33 and 37 therein. The results for those compounds are reported in Table IX of the '143 Patent and are believed to represent results from oral administration.
Pharmacological tests were carried out under oral administration to determine anti-emetic ED50 in accordance with the procedure of Example 29 with the following results: […]

Data set [3] in a line: acute toxicity in the mouse. The following applies: in vivo. The source says: The acute toxicity of the compounds of the invention has been studied in the mouse. The LD50 's are set out in the following Table 3. […] This characteristic is highly desirable because the possibility of toxic effects due to the administration of therapeutic doses is thereby minimized.
Data set [4] concerns biting sterotypes induced by apomorphine. Briefly: potentiation of biting sterotypes induced by apomorphine in mice, Pedeson's method. Format: in vivo. The conditions noted are these: Mus musculus, ip, Table 6, apomorphine 10 mg/kg, interperitoneal. The procedure: The compounds were also tested for potentiation of biting sterotypes induced by apomorphine (10 (mg/kg) in mice, under interperitoneal administration in accordance with Pedeson's method in Brit J. Pharmacol. 1968, 34 (1), 219-220 with the following results: […]

The subject of data set [5] is stereotypes induced by apomorphine. Briefly: potentiation of stereotypes induced by apomorphine in rats. The data set is classed as in vivo. The following applies: Rattus norvegicus, ip, Table 7, apomorphine 0.25 mg/kg, intraperitoneal. The protocol: The compound of Example 2 was tested against sulpiride for potentiation of stereotypes induced by apomorphine (0.25 mg/kg) in rats under intraperitoneal administration with the following results: […]

A further data set in a line: solubility in water. The data set is classed as physicochemical. The following applies: crystals, base.

Take `CCS(=O)(=O)c1cc(C(=O)NCC2CCCN2CC2CC2)c(OC)cc1N` (centres unmarked) [Example 2, N-(1-cyclopropyl-methyl-2-pyrrolidinyl-methyl)-2-methoxy-4-amino-5-ethylsulphonyl-benzamide]: the ED50 was found to be 0.0004 mg/kg in data set [1], 0.0009 mg/kg in data set [2], 1.6 mg/kg in data set [4] and 2.4 mg/kg in data set [5]. The LD50 is 52.5 to 54.6 mg/kg in data set [3] (I.V. (intravenous)); 1260 to 1320 mg/kg in data set [3] (P.O. (oral)); 204 to 220 mg/kg in data set [3] (ip, I.P. (intraperitoneal)); 380 to 396 mg/kg in data set [3] (sc, S.C. (subcutaneous)).
`COc1cc(S(N)(=O)=O)cc(C(=O)NCC2CCCN2CC2CC2)c1OC` (centres unmarked) [Example 4, N-(1-cyclopropylmethyl-2-pyrrolidinylmethyl)-2,3-dimethoxy-5-sulphamoyl benzamide]: the ED50 in data set [1] is 0.0022 mg/kg. Moreover, the LD50 was 60 to 64.5 mg/kg in data set [3] (I.V. (intravenous)); 2280 mg/kg in data set [3] (P.O. (oral)); 372 to 403 mg/kg in data set [3] (ip, I.P. (intraperitoneal)); 930 mg/kg in data set [3] (sc, S.C. (subcutaneous)). Moreover, in the data set “solubility in water”, the solubility in water result was “insoluble”.
